Measurements as given in ChEMBL document CHEMBL3352346, “Optimization of sphingosine-1-phosphate-1 receptor agonists: effects of acidic, basic, and zwitterionic chemotypes on pharmacokinetic and pharmacodynamic profiles” (J Med Chem, 2014).
≈ marks a conversion by molar mass, not a printed value. Calls of active or inactive are those of the source. The rule behind the calls is not given here.

Tests used:
[1] = target: Sphingosine 1-phosphate receptor 1 (Homo sapiens, UniProt P21453); experiment: Agonist activity at human S1P1R expressed in RH7777 membranes assessed as [35S]GTPgammaS binding after 30 mins; assay type: functional, cell membranes
[2] = target: Sphingosine 1-phosphate receptor 3 (Homo sapiens, UniProt Q99500); experiment: Agonist activity at human S1P3R expressed in RBL membranes assessed as [35S]GTPgammaS binding after 30 mins; assay type: functional, cell membranes
[3] = Solubility in fed-state simulated intestinal fluid at pH 5 after 24 hrs; assay type: ADME
[4] = Solubility in fed-state simulated intestinal fluid at pH 6.5 after 24 hrs; assay type: ADME
Cytochrome P450 1A2 = target: T1, Cytochrome P450 1A2 (Homo sapiens, UniProt P05177); experiment: Inhibition of CYP1A2 (unknown origin); assay type: ADME
T1 sequence (P05177 whole entry): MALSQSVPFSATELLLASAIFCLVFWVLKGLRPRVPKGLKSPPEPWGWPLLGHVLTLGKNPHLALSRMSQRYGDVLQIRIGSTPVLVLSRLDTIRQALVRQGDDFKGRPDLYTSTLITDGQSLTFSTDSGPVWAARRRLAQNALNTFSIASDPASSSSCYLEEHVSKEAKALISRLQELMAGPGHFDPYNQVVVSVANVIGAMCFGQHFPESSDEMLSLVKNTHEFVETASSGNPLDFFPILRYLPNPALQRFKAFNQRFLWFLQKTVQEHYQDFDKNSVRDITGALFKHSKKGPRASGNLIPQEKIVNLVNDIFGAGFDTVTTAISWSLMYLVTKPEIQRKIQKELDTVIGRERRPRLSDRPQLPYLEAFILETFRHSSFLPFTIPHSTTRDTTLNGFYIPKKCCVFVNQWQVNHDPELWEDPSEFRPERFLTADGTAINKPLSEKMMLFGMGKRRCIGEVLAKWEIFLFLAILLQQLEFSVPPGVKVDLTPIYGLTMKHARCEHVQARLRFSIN

Cytochrome P450 2C9 = Cytochrome P450 2C9 (Homo sapiens, UniProt P11712); experiment: Inhibition of CYP2C9 (unknown origin); assay type: ADME
Cytochrome P450 2C19 = Cytochrome P450 2C19 (Homo sapiens, UniProt P33261); experiment: Inhibition of CYP2C19 (unknown origin); assay type: ADME
Cytochrome P450 2D6 = Cytochrome P450 2D6 (Homo sapiens, UniProt P10635); experiment: Inhibition of CYP2D6 (unknown origin); assay type: ADME
[5] = Inhibition of CYP3A4VG (unknown origin); assay type: ADME, Homo sapiens
[6] = Inhibition of CYP3A4VR (unknown origin); assay type: ADME, Homo sapiens
[7] = Permeability in MDCK cells; assay type: ADME, cell-based, Canis lupus familiaris; conditions: dog, read-out: permeability
[8] = Fraction unbound in rat blood; assay type: ADME, tissue-based
[9] = Fraction unbound in dog blood; assay type: ADME, tissue-based, Canis lupus familiaris
[10] = Fraction unbound in human blood; assay type: ADME, tissue-based
Hepatocyte = experiment: Intrinsic clearance in rat hepatocyte; assay type: ADME, cell-based; conditions: hepatocytes
[11] = Intrinsic clearance in dog hepatocyte; assay type: ADME, cell-based, Canis lupus familiaris; conditions: hepatocytes
Rattus norvegicus [12] = experiment: Reduction in lymphocyte level in po dosed male Lewis rat; assay type: functional, organism-based; conditions: Rattus norvegicus, Lewis
[13] = Clearance in CD rat at 1 mg/kg, iv or 3 mg/kg, po using DMSO/10%(w/v) Kleptose, 0.9% saline(aq) (2%/98%); assay type: ADME, organism-based; conditions: in vivo
[14] = Volume of distribution at steady state in CD rat at 1 mg/kg, iv or 3 mg/kg, po using DMSO/10%(w/v) Kleptose, 0.9% saline(aq) (2%/98%); assay type: ADME, organism-based; conditions: in vivo, read-out: Vdss
[15] = Half life in CD rat at 1 mg/kg, iv or 3 mg/kg, po using DMSO/10%(w/v) Kleptose, 0.9% saline(aq) (2%/98%); assay type: ADME, organism-based; conditions: in vivo
[16] = Oral bioavailability in CD rat at 3 mg/kg using Methylcellulose(aq), 1% (w/v) suspension; assay type: ADME, organism-based; conditions: CD, in vivo
[17] = Clearance in Beagle dog at 1 mg/kg, iv or 2 mg/kg, po using DMSO/10%(w/v) Kleptose, 0.9% saline(aq) (2%/98%); assay type: ADME, organism-based, Canis lupus familiaris; conditions: in vivo
[18] = Volume of distribution at steady state in Beagle dog at 1 mg/kg, iv or 2 mg/kg, po using DMSO/10%(w/v) Kleptose, 0.9% saline(aq) (2%/98%); assay type: ADME, organism-based, Canis lupus familiaris; conditions: beagle, in vivo, read-out: Vdss
[19] = Half life in Beagle dog at 1 mg/kg, iv or 2 mg/kg, po using DMSO/10%(w/v) Kleptose, 0.9% saline(aq) (2%/98%); assay type: ADME, organism-based, Canis lupus familiaris; conditions: beagle, in vivo
[20] = Oral bioavailability in Beagle dog at 2 mg/kg using Methylcellulose(aq), 1% (w/v) suspension; assay type: ADME, organism-based, Canis lupus familiaris; conditions: beagle, in vivo
[21] = Clearance in cynomolgus monkey at 1 mg/kg, iv or 3 mg/kg, po using DMSO/10%(w/v) Kleptose, 0.9% saline(aq) (2%/98%); assay type: ADME, organism-based, Macaca fascicularis; conditions: in vivo
[22] = Volume of distribution at steady state in cynomolgus monkey at 1 mg/kg, iv or 3 mg/kg, po using DMSO/10%(w/v) Kleptose, 0.9% saline(aq) (2%/98%); assay type: ADME, organism-based, Macaca fascicularis; conditions: in vivo, read-out: Vdss
[23] = Half life in cynomolgus monkey at 1 mg/kg, iv or 3 mg/kg, po using DMSO/10%(w/v) Kleptose, 0.9% saline(aq) (2%/98%); assay type: ADME, organism-based, Macaca fascicularis; conditions: in vivo
[24] = Oral bioavailability in cynomolgus monkey at 3 mg/kg using Methylcellulose(aq), 1% (w/v) suspension; assay type: ADME, organism-based, Macaca fascicularis; conditions: in vivo
[25] = Solubility in simulated gastric fluid; assay type: ADME
[26] = Dissociation constant, pKa of the compound; assay type: physicochemical
Mus musculus = experiment: Volume of distribution at steady state in po dosed C57BL/6 mouse at 1 mg/kg, iv using DMSO/1% methylcellulose 1:99 (w/v); assay type: ADME, organism-based; design: dose 1 mg/kg, route oral; conditions: in vivo
[27] = Half life in po dosed C57BL/6 mouse at 1 mg/kg, iv using DMSO/1% methylcellulose 1:99 (w/v); assay type: ADME, organism-based; design: dose 1 mg/kg, route oral; conditions: in vivo
[28] = Oral bioavailability in C57BL/6 mouse at 3 mg/kg using 1% methylcellulose (w/v); assay type: ADME, organism-based; conditions: in vivo
Rattus norvegicus [29] = experiment: Reduction of lymphocyte count in rat at 1 mg/kg, po measured at 4 hrs relative to control; assay type: functional; design: scale not given: the % may be the effect or the level left
Rattus norvegicus [30] = experiment: Reduction of lymphocyte count in rat at 1 mg/kg, po measured at 8 hrs relative to control; assay type: functional; design: scale not given: the % may be the effect or the level left
Rattus norvegicus [31] = experiment: Reduction of lymphocyte count in rat at 1 mg/kg, po measured at 24 hrs relative to control; assay type: functional; design: scale not given: the % may be the effect or the level left
Rattus norvegicus [32] = experiment: Reduction of lymphocyte count in rat at 0.3 to 3 mg/kg, po measured relative to control; assay type: functional, organism-based
Albumin = Albumin (Homo sapiens, UniProt P02768); experiment: Fraction unbound as a percentage in human serum albumin; assay type: ADME
[33] = Fraction unbound in cynomolgus monkey blood; assay type: ADME, tissue-based, Macaca fascicularis
[34] = Intrinsic clearance in cynomolgus monkey hepatocyte; assay type: ADME, cell-based, Macaca fascicularis; conditions: hepatocytes, read-out: CLH

Chain of Cytochrome P450 2D6 (P10635 whole entry): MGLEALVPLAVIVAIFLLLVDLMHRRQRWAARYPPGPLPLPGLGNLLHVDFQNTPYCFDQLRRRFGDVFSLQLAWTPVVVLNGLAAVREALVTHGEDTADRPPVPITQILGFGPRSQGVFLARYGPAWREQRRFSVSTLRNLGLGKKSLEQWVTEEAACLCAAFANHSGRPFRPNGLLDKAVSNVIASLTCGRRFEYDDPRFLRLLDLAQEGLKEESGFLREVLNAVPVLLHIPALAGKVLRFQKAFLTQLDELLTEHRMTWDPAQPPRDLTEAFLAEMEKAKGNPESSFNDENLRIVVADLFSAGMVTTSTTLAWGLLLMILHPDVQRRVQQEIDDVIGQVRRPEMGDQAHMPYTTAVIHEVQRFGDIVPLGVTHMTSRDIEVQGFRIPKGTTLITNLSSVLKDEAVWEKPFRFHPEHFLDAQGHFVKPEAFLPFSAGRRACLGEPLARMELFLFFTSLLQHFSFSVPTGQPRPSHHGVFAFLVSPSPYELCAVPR
Chain of Sphingosine 1-phosphate receptor 1 (P21453 whole entry): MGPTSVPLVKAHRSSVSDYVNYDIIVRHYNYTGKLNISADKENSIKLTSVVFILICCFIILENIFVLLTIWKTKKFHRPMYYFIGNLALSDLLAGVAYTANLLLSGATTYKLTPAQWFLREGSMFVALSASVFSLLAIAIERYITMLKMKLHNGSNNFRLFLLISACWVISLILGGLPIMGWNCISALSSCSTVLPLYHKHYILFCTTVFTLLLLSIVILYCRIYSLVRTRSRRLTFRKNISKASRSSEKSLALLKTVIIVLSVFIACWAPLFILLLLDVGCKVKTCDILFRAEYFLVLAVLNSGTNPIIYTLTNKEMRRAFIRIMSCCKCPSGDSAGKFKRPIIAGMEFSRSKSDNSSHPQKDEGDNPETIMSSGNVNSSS
Chain of Sphingosine 1-phosphate receptor 3 (Q99500 whole entry): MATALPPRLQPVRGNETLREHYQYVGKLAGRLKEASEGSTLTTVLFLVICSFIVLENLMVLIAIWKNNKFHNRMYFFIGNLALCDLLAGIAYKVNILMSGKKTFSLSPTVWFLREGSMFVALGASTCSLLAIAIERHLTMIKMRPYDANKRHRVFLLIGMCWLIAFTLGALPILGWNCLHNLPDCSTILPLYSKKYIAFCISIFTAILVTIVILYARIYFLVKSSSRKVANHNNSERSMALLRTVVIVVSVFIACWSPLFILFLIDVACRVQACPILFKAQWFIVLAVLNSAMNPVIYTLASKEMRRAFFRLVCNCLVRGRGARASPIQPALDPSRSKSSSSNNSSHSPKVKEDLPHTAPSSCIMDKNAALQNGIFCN
Chain of Cytochrome P450 2C9 (P11712 whole entry): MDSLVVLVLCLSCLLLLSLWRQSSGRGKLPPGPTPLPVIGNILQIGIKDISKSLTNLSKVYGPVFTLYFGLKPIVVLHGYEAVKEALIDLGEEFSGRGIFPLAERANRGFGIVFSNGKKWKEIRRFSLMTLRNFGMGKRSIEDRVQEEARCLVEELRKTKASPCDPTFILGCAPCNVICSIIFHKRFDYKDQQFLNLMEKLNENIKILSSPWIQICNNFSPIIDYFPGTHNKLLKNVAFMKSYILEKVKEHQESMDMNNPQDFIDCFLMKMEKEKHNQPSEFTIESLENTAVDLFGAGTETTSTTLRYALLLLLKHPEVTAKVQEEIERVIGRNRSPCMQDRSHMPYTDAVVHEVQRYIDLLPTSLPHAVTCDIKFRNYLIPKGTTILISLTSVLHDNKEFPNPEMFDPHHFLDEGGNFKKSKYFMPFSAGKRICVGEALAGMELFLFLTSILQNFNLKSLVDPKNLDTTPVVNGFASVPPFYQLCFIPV
Chain of Cytochrome P450 2C19 (P33261 whole entry): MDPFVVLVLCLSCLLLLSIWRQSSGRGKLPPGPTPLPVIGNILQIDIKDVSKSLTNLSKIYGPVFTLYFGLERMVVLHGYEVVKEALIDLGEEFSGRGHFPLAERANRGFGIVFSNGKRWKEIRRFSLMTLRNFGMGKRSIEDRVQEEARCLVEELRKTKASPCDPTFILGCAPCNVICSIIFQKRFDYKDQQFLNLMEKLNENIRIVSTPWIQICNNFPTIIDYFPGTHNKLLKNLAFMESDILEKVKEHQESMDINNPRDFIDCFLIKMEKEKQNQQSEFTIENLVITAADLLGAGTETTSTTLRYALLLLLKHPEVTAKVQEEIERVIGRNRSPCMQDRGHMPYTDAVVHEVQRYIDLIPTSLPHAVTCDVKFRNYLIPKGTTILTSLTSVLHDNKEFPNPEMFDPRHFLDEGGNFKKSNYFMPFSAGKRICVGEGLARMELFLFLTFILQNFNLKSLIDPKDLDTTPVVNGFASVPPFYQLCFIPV
Chain of Albumin (P02768 whole entry): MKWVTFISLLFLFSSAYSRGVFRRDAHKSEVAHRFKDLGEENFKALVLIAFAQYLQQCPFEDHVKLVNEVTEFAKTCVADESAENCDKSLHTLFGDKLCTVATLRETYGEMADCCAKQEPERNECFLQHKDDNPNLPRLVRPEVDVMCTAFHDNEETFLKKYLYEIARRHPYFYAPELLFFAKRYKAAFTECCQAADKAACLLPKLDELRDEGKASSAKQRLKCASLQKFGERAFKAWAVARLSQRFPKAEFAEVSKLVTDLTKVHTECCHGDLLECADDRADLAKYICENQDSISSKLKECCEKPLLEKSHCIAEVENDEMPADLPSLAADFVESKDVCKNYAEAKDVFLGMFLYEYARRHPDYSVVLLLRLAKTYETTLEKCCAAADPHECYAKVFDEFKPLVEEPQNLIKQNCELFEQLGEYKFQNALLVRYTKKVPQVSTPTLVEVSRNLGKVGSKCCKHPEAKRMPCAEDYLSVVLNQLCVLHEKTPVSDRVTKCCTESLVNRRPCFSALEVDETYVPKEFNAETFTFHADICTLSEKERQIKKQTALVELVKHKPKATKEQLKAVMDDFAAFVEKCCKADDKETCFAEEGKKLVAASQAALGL

Compound: CC(C)Oc1ccc(-c2nc(-c3cccc4c3OCCN(CCCC(=O)O)C4)no2)cc1Cl
- EC50 [1]: 0.0398 µM
- EC50 [2]: > 31.6 µM
- solubility at 24 h [3]: 30 µg/mL (≈ 63.6 µM)
- solubility at 24 h [4]: 320 µg/mL (≈ 678 µM)
- IC50 (Cytochrome P450 1A2): > 50 µM
- IC50 (Cytochrome P450 2C9): 27 µM
- IC50 (Cytochrome P450 2C19): > 50 µM
- IC50 (Cytochrome P450 2D6): > 50 µM
- IC50 [5]: 40 µM
- IC50 [6]: 39 µM
- Papp [7]: 15.5 ×10⁻⁶ cm/s
- fraction unbound [8]: 0.012
- fraction unbound [9]: 0.018
- fraction unbound [10]: 0.02
- CLH (Hepatocyte): 1 mL/min/g
- CLH [11]: 8.3 mL/min/g
- IC50 (Rattus norvegicus [12]): 0.127 µM
- clearance [13]: 7 mL/min/kg
- Vd [14]: 1.2 L/kg
- half-life [15]: 3 h
- bioavailability [16]: 83%
- clearance [17]: 26 mL/min/kg
- Vd [18]: 1 L/kg
- half-life [19]: 0.4 h
- bioavailability [20]: 57%
- clearance [21]: 30 mL/min/kg
- Vd [22]: 4 L/kg
- half-life [23]: 3.2 h
- bioavailability [24]: 39%
- solubility [25]: > 1320 µg/mL
- pKa [26]: 7.39

Compound: CC(C)Oc1ccc(-c2nc(-c3ccc4c(c3)CCNCC4)no2)cc1C#N
- EC50 [1]: 0.0251 µM
- EC50 [2]: > 31.6 µM
- Vdss (Mus musculus): 9.1 L/kg
- half-life [27]: 6.9 h
- bioavailability [28]: 63%
- Activity (Rattus norvegicus [29]): 75%
- Activity (Rattus norvegicus [30]): 82%
- Activity (Rattus norvegicus [31]): 6%

Compound: CC(C)Oc1ccc(-c2nc(-c3ccc4c(c3)CCN(CCCC(=O)O)CC4)no2)cc1C#N
- EC50 [1]: 0.00794 µM
- EC50 [2]: 7.94 µM
- solubility at 24 h [3]: 100 µg/mL (≈ 217 µM)
- solubility at 24 h [4]: 30 µg/mL (≈ 65.1 µM)
- IC50 (Cytochrome P450 1A2): > 50 µM
- IC50 (Cytochrome P450 2C9): > 50 µM
- IC50 (Cytochrome P450 2C19): > 50 µM
- IC50 (Cytochrome P450 2D6): > 50 µM
- IC50 [5]: > 50 µM
- IC50 [6]: > 50 µM
- Papp [7]: 15 ×10⁻⁶ cm/s
- CLH (Hepatocyte): < 0.85 mL/min/g
- CLH [11]: < 1.7 mL/min/g
- IC50 (Rattus norvegicus [12]): 0.015 µM
- clearance [13]: 7 mL/min/kg
- Vd [14]: 1.5 L/kg
- half-life [15]: 2.6 h
- bioavailability [16]: 62%
- clearance [17]: 3 mL/min/kg
- Vd [18]: 1.6 L/kg
- half-life [19]: 8 h
- bioavailability [20]: 69%
- solubility [25]: 20 µg/mL (≈ 43.4 µM)
- pKa [26]: 9.15
- inhibition (Rattus norvegicus [32]): Active

Compound: CC(C)Oc1ccc(-c2nc(-c3cccc4c3cnn4CCC(=O)[O-])no2)cc1Cl.[Na+]
- EC50 [1]: 0.02 µM
- EC50 [2]: > 31.6 µM
- fraction unbound (Albumin): 0.012
- solubility at 24 h [3]: 44 µg/mL
- solubility at 24 h [4]: 11 µg/mL
- IC50 (Cytochrome P450 1A2): > 50 µM
- IC50 (Cytochrome P450 2C9): 7 µM
- IC50 (Cytochrome P450 2C19): > 50 µM
- IC50 (Cytochrome P450 2D6): > 50 µM
- IC50 [5]: 28 µM
- IC50 [6]: 25 µM
- Papp [7]: 20.3 ×10⁻⁶ cm/s
- fraction unbound [8]: 0.0017
- fraction unbound [9]: 0.002
- fraction unbound [10]: 0.001
- CLH (Hepatocyte): < 0.9 mL/min/g
- CLH [11]: < 1.7 mL/min/g
- IC50 (Rattus norvegicus [12]): 0.117 µM
- fraction unbound [33]: 0.0018
- CLint scaled [34]: < 0.9 mL/min/kg
- clearance [13]: 2 mL/min/kg
- Vd [14]: 1 L/kg
- half-life [15]: 7.5 h
- bioavailability [16]: 96%
- clearance [17]: 4 mL/min/kg
- Vd [18]: 1 L/kg
- half-life [19]: 3.9 h
- bioavailability [20]: 94%
- clearance [21]: 3 mL/min/kg
- Vd [22]: 0.4 L/kg
- half-life [23]: 1.2 h
- bioavailability [24]: 59%
